Experimental data published in US20260347403A1, “FUNGICIDAL COMPOUND” (priority 2022, published 2026).
Read-outs that look alike come from different tables or passages of the source. Numbered stars: 1 amine (or outer) side, 2 acyl side, 3 side chain; on linkers, the order of the positions; unused ones are H or OH. Bridge positions count the residues as written; N and C are the ends. Square brackets hold non-standard residues; d marks the D form. Peptide text beside a SMILES is read from it. * marks the point of attachment. Tridecanoyl(12-Me) = CC(C)CCCCCCCCCCC(=O)*; X1 = NC(=O)CC(O)C(N[*:1])C(=O)[*:2]; NMeF = CN[CH](Cc1ccccc1)C(=O)O; NMeN = CN[CH](CC(N)=O)C(=O)O; X2 = CCC(C)CCCCCCCCCCC(=O)*

Key:
Zymoseptoria tritici [1] = test: Liquid culture 96-well mixture assay with malonomicin, Zymoseptoria tritici, 72 hrs; format: cell-based; conditions: read-out: control of fungal growth (% reduction)
Description: A stock solution for compound of Formula I(a) was produced in DMSO (max. 10 mg/ml). Malonomicin was produced according to Law et al, 2018 (Nature Catalys is |VOL 1|DECEMBER 2018|977-984). A stock solution of malonomicin was produced in water plus 0.025% Tween® 20.
Assays to test efficacy of mixtures of the lipopeptide compound of Formula I(a) in combination with malonomicin on the control of fungal pathogens in a liquid culture assay were designed for a 96well plate as outlined in table 1:
The 96 well plate design allows to compare disease control of the mixture with disease control of the respective single compound at the same rate.
A master plate with 10× concentrated solution of the compound stock solutions diluted in water plus 0.025% Tween® 20 was prepared. The concentration of DMSO (from the stock of compound of Formula (a)) and Tween® 20 was kept constant in all cells of the master plate. 10 μl was transferred from the master plate to a 96well test plate. The nutrient broth containing the fungal spores/mycelia fragments was then added to the test plate to give an end concentration of 1× for the tested compounds (as outlined in Table 8). The test plates were incubated in the dark at 24 °C and 96% rh. The inhibition of fungal growth was determined photometrically after ca 3 days, and percent fungal growth reduction relative to the untreated check was calculated.
Zymoseptoria tritici (EPPO Code: SEPTTR)
Conidia of the fungus from cryogenic storage were directly mixed into nutrient broth (PDB: potato dextrose broth).

[2] = tested on: Puccinia recondita f. sp. tritici; test: Leaf painting assay in wheat seedling, Puccinia recondita; format: in vivo, Puccinia recondita f. sp. tritici on wheat (variety Arina); conditions: for % reduction of fungal growth: middle segment; for control on the treated area (middle segment): up to, Table 6, Puccinia
Description: (§1) Wheat seedlings of the variety Riband (for Zymoseptoria tritici trials) or variety Arina (for Puccinia recondite trials) were grown in a glasshouse until 14 d after seeding. At this time, such seedlings usually have a first leaf fully emerged (designated L1), a second leaf fully emerged (L2) and a third leaf (L3) that was partially emerged and in the process of development. Using a permanent pen, two dots were applied on the second leaf such as to generate three segments of roughly equal size: Segment A (at the base), segment B (middle part) and segment C (upper part of the leaf). A stock solution of the test compound was produced in DMSO at a concentration of 10′000 ppm. […] The diluted compound was applied to the middle segment of L2 using a conventional cotton stick; the cotton stick was soaked in the diluted compound and rubbed several times on the adaxial leaf surface between the two marks. 1 day later, the complete plant was inoculated with a fungal spore suspension using a paint brush and application of the spore suspension until before run-off.
For infection with Puccinia recondita: The test plants were inoculated by spraying them with a spore suspension 1 day after application (spore suspension at 80′000 spores per ml in water supplemented with Tween® 20 at 0.1%). After an incubation period of 1 day at 20 °C and 95% rh, the inoculated test plants were kept at 20 °C and 60% rh in a greenhouse.
(§2) The three segments of the leaf were evaluated individually.

Pyricularia oryzae = format: cell-based; conditions: concentrations in Table 8
Zymoseptoria tritici [3] = test: Leaf painting assay in wheat seedling, Zymoseptoria tritici; format: in vivo, Zymoseptoria tritici on wheat (variety Riband); conditions: for % reduction of fungal growth: middle segment; for control on the treated area (middle segment): up to, Table 6, Zymoseptoria tritici
Description: as §1
For infection with Zymoseptoria tritici: The test plants were inoculated by spraying a spore suspension on them 1 day after application (1.5Mio spores per ml in water supplemented with 0.01% Tween®20). After an incubation period of 4 days at 22 °C/21 °C. (day/night) and 95% rh, the inoculated test plants were kept at 22 °C/21 °C (day/night) and 70% rh in a greenhouse. Efficacy was assessed by visual evaluation directly when an appropriate level of disease appears on untreated check plants (usually >80% disease cover at 16-19 days after inoculation).
as §2

[4] = tested on: Puccinia recondita f. sp. tritici; test: Leaf disc/segment test on wheat, Puccinia recondita f. sp. tritici (Brown Rust), 7-9 days after application; format: in vivo
Description: (§3) Leaf disks or leaf segments of various plant species were cut from plants grown in the greenhouse. The cut leaf disks, or segments were placed in multiwell plates (24-well format) onto water agar. The leaf disks were sprayed with a test solution before inoculation with the fungal spores. Compounds to be tested were prepared as DMSO solutions (max. 10 mg/ml) which were diluted to the appropriate concentration with water plus 0.025% Tween® 20 just before spraying. The inoculated leaf disks or segments were incubated under defined conditions (temperature, relative humidity, light, etc.) according to the respective test system. A single evaluation of disease level was carried out by visual evaluation 3-9 days days after inoculation, depending on the pathosystem as indicated below. Percent disease control relative to the untreated check leaf disks or segments was then calculated.
Puccinia recondita f. Sp. Tritici/Wheat/Leaf Disc (Brown Rust)
Wheat leaf segments cv. Kanzler were placed on agar in multiwell plates (24-well format) and sprayed with the formulated test compound diluted in water. The leaf disks were inoculated with a spore suspension of the fungus 1 day after application. The inoculated leaf segments were incubated at 19 °C and 75% rh under a light regime of 12 h light/12 h darkness in a climate cabinet and the activity of a compound was assessed as percent disease control compared to untreated when an appropriate level of disease damage appears in untreated check leaf segments (7-9 days after application).

several fungal species = test: Leaf disc or leaf segment tests, summary over the fungi tested; format: in vivo; conditions: up to; Tables 4 and 5
Description: as §3

[5] = tested on: ROS production induced by flg22; test: Reactive Oxygen Species (ROS) burst assay with wheat leaf discs; conditions: Triticum aestivum, foliar
[6] = read-out: Fold change (peak ROS)
[7] = read-out: increase of ROS production induced by flg22 (factor)

SMILES | % reduction of fungal growth ([2]; 20 ppm) | % reduction of fungal growth ([2]; 200 ppm) | control on the treated area (middle segment) [2] | % reduction of fungal growth (Zymoseptoria tritici [3]; 20 ppm) | % reduction of fungal growth (Zymoseptoria tritici [3]; 200 ppm) | control on the treated area (middle segment) (Zymoseptoria tritici [3]) | % reduction of fungal growth ([4]; Table 4, 0.82 ppm) | % reduction of fungal growth ([4]; Table 4, 2.5 ppm) | % reduction of fungal growth ([4]; Table 4, 7.4 ppm) | % reduction of fungal growth ([4]; Table 4, 22 ppm) | % reduction of fungal growth ([4]; Table 4, 67 ppm) | % reduction of fungal growth ([4]; Table 4, 200 ppm) | % reduction of fungal growth ([4]; Table 5, 0.82 ppm) | % reduction of fungal growth ([4]; Table 5, 2.5 ppm) | % reduction of fungal growth ([4]; Table 5, 7.4 ppm) | % reduction of fungal growth ([4]; Table 5, 22 ppm) | % reduction of fungal growth ([4]; Table 5, 67 ppm) | % reduction of fungal growth ([4]; Table 5, 200 ppm) | reduction of fungal growth (several fungal species) | fold induction at 1 ppm [5, 6] | also measured
CC(C)CCCCCCCCCCC(=O)NC1C(=O)NC(CC(=O)O)C(=O)NC(C(O)CC(N)=O)C(=O)NC(CO)C(=O)N(C)C(CC(N)=O)C(=O)N(C)C(Cc2ccccc2)C(=O)NC(CCC(N)=O)C(=O)NC(CCC(=O)O)C(=O)OC1C (centres unmarked) [Formula I(a)] ({Tridecanoyl(12-Me)}-TD[X1]S[NMeN][NMeF]QE; ester 1-C; configuration not given here) | 70% | 61% | up to 70% | 0% | 46% | up to 70% | 0% | 0% | 0% | 0% | 90% | 100% | 0% | 0% | 0% | 35% | 90% | 95% | up to 95% | 0.8 | inhibition of growth at 1.56 µg/mL (Zymoseptoria tritici [1]; I(a) 1.56 ppm): 0%; inhibition of growth at 3.125 µg/mL (Zymoseptoria tritici [1]; I(a) 3.125 ppm): 20%; inhibition of growth at 6.25 µg/mL (Zymoseptoria tritici [1]; I(a) 6.25 ppm): 50%; inhibition of growth at 12.5 µg/mL (Zymoseptoria tritici [1]; I(a) 12.5 ppm): 70%; inhibition of growth at 25 µg/mL (Zymoseptoria tritici [1]; I(a) 25 ppm): 70%; inhibition of growth at 50 µg/mL (Zymoseptoria tritici [1]; I(a) 50 ppm): 90%; inhibition of growth at 100 µg/mL (Zymoseptoria tritici [1]; I(a) 100 ppm): 90%; control of fungal growth (% reduction of growth in the test well as compared to untreated check) (Pyricularia oryzae; plate column (1): compound of Formula I(a) alone, dilution series lines A (highest) to G): 20%; fold induction at 25 ppm [5, 6]: 0.8; fold induction at 100 ppm [5, 6]: 2.7; fold induction at 100 ppm [5, 7]: ≥ 2.7
CCC(C)CCCCCCCCCCC(=O)NC1C(=O)NC(CC(=O)O)C(=O)NC(C(O)CC(N)=O)C(=O)NC(CO)C(=O)N(C)C(CC(N)=O)C(=O)N(C)C(Cc2ccccc2)C(=O)NC(CCC(N)=O)C(=O)NC(CCC(=O)O)C(=O)OC1C (centres unmarked) [Formula I(b)] (X2-TD[X1]S[NMeN][NMeF]QE; ester 1-C; configuration not given here) | 55% | 67% | up to 70% | 0% | 31% | up to 70% | 0% | 0% | 0% | 0% | 45% | 70% | 0% | 0% | 0% | 35% | 70% | 95% | up to 95% | 1.2 | fold induction at 25 ppm [5, 6]: 1.3; fold induction at 100 ppm [5, 6]: 3; fold induction at 100 ppm [5, 7]: ≥ 2.7
NC[C@@H]1NC(=O)C(C(=O)CC(NC(=O)[C@@H](N)CO)(C(=O)O)C(=O)O)=C1O [malonomicin, {[(2S)-2-amino-3-hydroxypropanoyl]amino}{2-[(5S)-5-(aminomethyl)-4-hydroxy-2-oxo-2,5-dihydro-1H-pyrrol-3-yl]-2-oxoethyl}malonic acid] | – | – | – | – | – | – | – | – | – | – | – | – | – | – | – | – | – | – | – | – | inhibition of growth at 1 ppm (Zymoseptoria tritici [1]; malonomicin 1.00 ppm): 0%; inhibition of growth at 3 ppm (Zymoseptoria tritici [1]; malonomicin 3.00 ppm): 0%; inhibition of growth at 7.81 ppm (Zymoseptoria tritici [1]; malonomicin 7.81 ppm): 0%; inhibition of growth at 15.63 ppm (Zymoseptoria tritici [1]; malonomicin 15.63 ppm): 20%; inhibition of growth at 31.25 ppm (Zymoseptoria tritici [1]; malonomicin 31.25 ppm): 20%; inhibition of growth at 62.5 ppm (Zymoseptoria tritici [1]; malonomicin 62.5 ppm): 50%; inhibition of growth at 125 ppm (Zymoseptoria tritici [1]; malonomicin 125 ppm): 70%; inhibition of growth at 250 ppm (Zymoseptoria tritici [1]; malonomicin 250 ppm): 70%; inhibition of growth at 500 ppm (Zymoseptoria tritici [1]; malonomicin 500 ppm): 90%; inhibition of growth at 1000 ppm (Zymoseptoria tritici [1]; malonomicin 1000 ppm): 100%; control of fungal growth (% reduction of growth in the test well as compared to untreated check) (Pyricularia oryzae; plate column (2), highest malonomicin concentration, lines A-G with compound of Formula I(a) dilution series, line H malonomicin alone): 90%; control of fungal growth (% reduction of growth in the test well as compared to untreated check) (Pyricularia oryzae; plate column (3) of malonomicin dilution series, lines A-G with compound of Formula I(a), line H malonomicin alone): 70%; control of fungal growth (% reduction of growth in the test well as compared to untreated check) (Pyricularia oryzae; plate column (4) of malonomicin dilution series, lines A-G with compound of Formula I(a), line H malonomicin alone): 70%; control of fungal growth (% reduction of growth in the test well as compared to untreated check) (Pyricularia oryzae; plate column (5) of malonomicin dilution series, lines A-G with compound of Formula I(a), line H malonomicin alone): 50%; control of fungal growth (% reduction of growth in the test well as compared to untreated check) (Pyricularia oryzae; plate column (6) of malonomicin dilution series, lines A-G with compound of Formula I(a), line H malonomicin alone): 50%; control of fungal growth (% reduction of growth in the test well as compared to untreated check) (Pyricularia oryzae; plate column (7) of malonomicin dilution series, lines A-G with compound of Formula I(a), line H malonomicin alone): 20%; control of fungal growth (% reduction of growth in the test well as compared to untreated check) (Pyricularia oryzae; plate column (8) of malonomicin dilution series, lines A-G with compound of Formula I(a), line H malonomicin alone): 20%; control of fungal growth (% reduction of growth in the test well as compared to untreated check) (Pyricularia oryzae; plate column (9) of malonomicin dilution series, lines A-G with compound of Formula I(a), line H malonomicin alone): 0%; control of fungal growth (% reduction of growth in the test well as compared to untreated check) (Pyricularia oryzae; plate column (10) of malonomicin dilution series, lines A-G with compound of Formula I(a), line H malonomicin alone): 0%; control of fungal growth (% reduction of growth in the test well as compared to untreated check) (Pyricularia oryzae; plate column (11), lowest malonomicin concentration, lines A-G with compound of Formula I(a), line H malonomicin alone): 0%
